Laboratory results: patent US9382254B2, “Compounds and pharmaceutical compositions thereof for the treatment of cystic fibrosis” (Galapagos NV, priority 2013, dated 2016)

biological target: T1, CFTR ΔF508 mutant (Homo sapiens, UniProt P13569, DEL508-508); test: YFP-halide influx assay for the CFTR-ΔF508 mutation, gluconate buffer; assay type: cell-based; conditions: CFBE41o- cells, forskolin 10.67 μM
T1 construct: expressed in transfected cells; host or cells: CFBE41o- (adenoviral transduction)
T1 sequence (P13569 with tags, fused parts or gaps DEL508-508): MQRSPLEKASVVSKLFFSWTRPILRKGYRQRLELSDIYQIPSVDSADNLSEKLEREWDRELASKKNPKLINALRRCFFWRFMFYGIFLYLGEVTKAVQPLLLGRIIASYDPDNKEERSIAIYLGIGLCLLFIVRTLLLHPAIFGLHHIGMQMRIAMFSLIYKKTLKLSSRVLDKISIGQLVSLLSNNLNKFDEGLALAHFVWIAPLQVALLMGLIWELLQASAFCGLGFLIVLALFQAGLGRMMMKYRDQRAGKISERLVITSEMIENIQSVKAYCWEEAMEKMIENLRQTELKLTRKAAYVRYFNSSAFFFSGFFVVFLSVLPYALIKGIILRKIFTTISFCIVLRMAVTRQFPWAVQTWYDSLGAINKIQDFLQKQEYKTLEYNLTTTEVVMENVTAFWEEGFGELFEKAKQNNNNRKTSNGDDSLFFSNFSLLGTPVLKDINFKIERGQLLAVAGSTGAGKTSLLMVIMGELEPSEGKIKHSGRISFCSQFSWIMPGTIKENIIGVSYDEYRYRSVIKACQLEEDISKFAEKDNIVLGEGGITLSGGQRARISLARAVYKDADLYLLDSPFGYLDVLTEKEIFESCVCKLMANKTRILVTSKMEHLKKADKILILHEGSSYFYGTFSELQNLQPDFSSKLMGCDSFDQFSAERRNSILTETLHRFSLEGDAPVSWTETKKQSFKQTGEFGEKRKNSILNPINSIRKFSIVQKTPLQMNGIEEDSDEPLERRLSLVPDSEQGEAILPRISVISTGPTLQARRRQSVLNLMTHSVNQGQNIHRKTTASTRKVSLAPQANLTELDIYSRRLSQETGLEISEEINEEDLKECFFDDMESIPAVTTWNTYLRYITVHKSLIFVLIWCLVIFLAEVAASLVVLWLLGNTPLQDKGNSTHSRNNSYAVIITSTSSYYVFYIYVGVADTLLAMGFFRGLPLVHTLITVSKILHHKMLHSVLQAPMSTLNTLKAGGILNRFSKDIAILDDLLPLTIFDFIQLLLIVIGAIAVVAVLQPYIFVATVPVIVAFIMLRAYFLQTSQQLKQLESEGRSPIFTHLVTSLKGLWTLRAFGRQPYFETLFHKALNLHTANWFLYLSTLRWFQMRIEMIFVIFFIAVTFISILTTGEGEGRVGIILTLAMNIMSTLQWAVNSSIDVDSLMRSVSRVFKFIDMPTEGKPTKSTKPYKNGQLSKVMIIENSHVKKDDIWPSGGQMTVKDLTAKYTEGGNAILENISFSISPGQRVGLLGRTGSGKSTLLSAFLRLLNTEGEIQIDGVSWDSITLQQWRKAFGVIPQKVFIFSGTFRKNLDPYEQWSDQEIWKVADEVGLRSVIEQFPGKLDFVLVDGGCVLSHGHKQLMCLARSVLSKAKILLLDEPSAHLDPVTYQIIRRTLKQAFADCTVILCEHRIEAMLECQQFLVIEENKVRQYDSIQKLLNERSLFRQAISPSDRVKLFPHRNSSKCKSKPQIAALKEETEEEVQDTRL
Procedure, shortened: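 Channel opening is read as the fall in YFP fluorescence over 7 s following iodide injection, expressed as 1-F/F0 and plotted versus compound concentration to derive EC50. Cells used were CFBE41o- expressing adenoviral ΔF508 CFTR and halide-sensitive YFP, rescued by 24 h at 27 °C or 24 h modulator treatment at 37 °C.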

Row | Structure (SMILES) | EC50
1 | NC(=O)c1cc(S(=O)(=O)N2CCOCC2)sc1NC(=O)c1ccccn1 [Compound 91, N-(3-carbamoyl-5-(morpholinosulfonyl)thiophen-2-yl) picolinamide] | 1520 nM
2 | Cc1c(S(=O)(=O)N2CCOCC2)sc(NC(=O)C(C)(C)C)c1C(N)=O [Compound 92, 4-methyl-5-(morpholinosulfonyl)-2-pivalamidothiophene-3-carboxamide] | 953 nM
3 | NC(=O)c1cc(S(=O)(=O)N2CCOCC2)sc1NC(=O)c1nccs1 [Compound 93, N-(3-carbamoyl-5-(morpholinosulfonyl)thiophen-2-yl)thiazole-2-carboxamide] | 3330 nM
4 | NC(=O)c1cc(S(=O)(=O)N2CCOCC2)sc1NC(=O)c1cocn1 [Compound 94, N-(3-carbamoyl-5-(morpholinosulfonyl)thiophen-2-yl) oxazole-4-carboxamide] | 3330 nM
5 | CC(C)(C)c1cc(C(=O)Nc2sc(S(=O)(=O)c3ccccc3)cc2C(N)=O)n[nH]1 [Compound 96, 5-tert-butyl-N-(3-carbamoyl-5-(phenylsulfonyl)thiophen-2-yl)-1H-pyrazole-3-carboxamide] | 253 nM
6 | NC(=O)c1cc(S(=O)(=O)N2CCOCC2)sc1NC(=O)c1ccc[nH]1 [Compound 97, N-(3-carbamoyl-5-(morpholinosulfonyl)thiophen-2-yl)-1H-pyrrole-2-carboxamide] | > 1000 nM
7 | NC(=O)c1cc(S(=O)(=O)N2CCOCC2)sc1NC(=O)c1ncco1 [Compound 98, N-(3-carbamoyl-5-(morpholinosulfonyl)thiophen-2-yl)oxazole-2-carboxamide] | > 1000 nM
8 | NC(=O)c1cc(S(=O)(=O)N2CCOCC2)sc1NC(=O)c1ccco1 [Compound 99, N-(3-carbamoyl-5-(morpholinosulfonyl)thiophen-2-yl)furan-2-carboxamide] | 1940 nM
9 | NC(=O)c1cc(S(=O)(=O)N2CCOCC2)sc1NC(=O)c1cc(C(F)(F)F)[nH]n1 [Compound 102, N-(3-carbamoyl-5-(morpholinosulfonyl)thiophen-2-yl)-5-(trifluoromethyl)-1H-pyrazole-3-carboxamide] | 215 nM
10 | Cc1c(S(=O)(=O)c2ccccc2)sc(NC(=O)c2ccccc2C(F)(F)F)c1C(N)=O [Compound 104, 4-methyl-5-(phenylsulfonyl)-2-(2-(trifluoromethyl)benzamido)thiophene-3-carboxamide] | 370 nM
11 | Cc1c(S(=O)(=O)N2CCOCC2)sc(NC(=O)c2ccccc2C(F)(F)F)c1C(N)=O [Compound 105, 4-methyl-5-(morpholinosulfonyl)-2-(2-(trifluoromethyl)benzamido) thiophene-3-carboxamide] | 396 nM
12 | CCc1cc(C(=O)Nc2sc(S(=O)(=O)c3ccc(F)cc3)cc2C(N)=O)n[nH]1 [Compound 110, N-(3-carbamoyl-5-(4-fluorophenylsulfonyl)thiophen-2-yl)-5-ethyl-1H-pyrazole-3-carboxamide] | 144 nM
13 | CC(C)(C)C(=O)Nc1sc(S(=O)(=O)c2ccc(F)cc2)cc1C(N)=O [Compound 112, 5-(4-fluorophenylsulfonyl)-2-pivalamidothiophene-3-carboxamide] | 352 nM
14 | CC(C)(C)C(=O)Nc1sc(S(=O)(=O)c2ccc(F)c(F)c2)cc1C(N)=O [Compound 120, 5-(3,4-difluorophenylsulfonyl)-2-pivalamidothiophene-3-carboxamide] | 488 nM
15 | NC(=O)c1cc(S(=O)(=O)N2CC(F)(F)C2)sc1NC(=O)c1ccccc1F [Compound 126, 5-(3,3-diflluoroazetidin-1-ylsulfonyl)-2-(2-fluorobenzamido) thiophene-3-carboxamide] | 191 nM
16 | CS(=O)(=O)c1cc(C(N)=O)c(NC(=O)c2ccccc2F)s1 [Compound 127, 2-(2-fluorobenzamido)-5-(methylsulfonyl) thiophene-3-carboxamide] | 659 nM
17 | CCS(=O)(=O)c1cc(C(N)=O)c(NC(=O)c2ccccc2F)s1 [Compound 128, 5-(ethylsulfonyl)-2-(2-fluorobenzamido) thiophene-3-carboxamide] | 400 nM
18 | NC(=O)c1cc(S(=O)(=O)C2CCCCC2)sc1NC(=O)c1ccccc1F [Compound 129, 5-(cyclohexylsulfonyl)-2-(2-fluorobenzamido) thiophene-3-carboxamide] | 275 nM
19 | NC(=O)c1cc(S(=O)(=O)N2CCOCC2)sc1NC(=O)C1(O)CC1 [Compound 131, 2-(1-hydroxycyclopropanecarboxamido)-5-(morpholinosulfonyl) thiophene-3-carboxamide] | 921 nM
20 | Cc1nc(C(=O)Nc2sc(S(=O)(=O)N3CCOCC3)cc2C(N)=O)cs1 [Compound 132, N-(3-carbamoyl-5-(morpholinosulfonyl)thiophen-2-yl)-2-methylthiazole-4-carboxamide] | 3330 nM
21 | NC(=O)c1cc(S(=O)(=O)N2CCOCC2)sc1NC(=O)c1ccc(Cl)cc1F [Compound 133, 2-(4-chloro-2-fluorobenzamido)-5-(morpholinosulfonyl) thiophene-3-carboxamide] | 271 nM

More lines, now with the values ahead:

Row | EC50 | Structure (SMILES)
22 | 121 nM | NC(=O)c1cc(S(=O)(=O)c2ccccc2)sc1NC(=O)c1ccccc1F [Compound 100, 2-(2-fluorobenzamido)-5-(phenylsulfonyl) thiophene-3-carboxamide]
23 | 213 nM | CN(Cc1ccc(F)cc1)S(=O)(=O)c1cc(C(N)=O)c(NC(=O)c2ccccc2F)s1 [Compound 106, 2-(2-fluorobenzamido)-5-(N-(4-fluorobenzyl)-N-methylsulfamoyl) thiophene-3-carboxamide]
24 | 130 nM | CN(C(C)(C)C)S(=O)(=O)c1cc(C(N)=O)c(NC(=O)c2ccccc2F)s1 [Compound 107, 5-(N-tert-butyl-N-methylsulfamoyl)-2-(2-fluorobenzamido) thiophene-3-carboxamide]
25 | 198 nM | CN(CC(F)F)S(=O)(=O)c1cc(C(N)=O)c(NC(=O)c2ccccc2F)s1 [Compound 108, 5-(N-(2,2-difluoroethyl)-N-methylsulfamoyl)-2-(2-fluorobenzamido) thiophene-3-carboxamide]
26 | 235 nM | NC(=O)c1cc(S(=O)(=O)c2cccc(F)c2)sc1NC(=O)c1ccccc1F [Compound 115, 2-(2-fluorobenzamido)-5-(3-fluorophenylsulfonyl) thiophene-3-carboxamide]
27 | 138 nM | NC(=O)c1cc(S(=O)(=O)c2ccccc2F)sc1NC(=O)c1ccccc1F [Compound 117, 2-(2-fluorobenzamido)-5-(2-fluorophenylsulfonyl) thiophene-3-carboxamide]
28 | 503 nM | Cc1ccc(CN(C)S(=O)(=O)c2cc(C(N)=O)c(NC(=O)c3ccccc3F)s2)cc1 [Compound 124, 2-(2-fluorobenzamido)-5-(N-methyl-N-(4-methylbenzyl)sulfamoyl) thiophene-3-carboxamide]
29 | 580 nM | CN(CC#N)S(=O)(=O)c1cc(C(N)=O)c(NC(=O)c2ccccc2F)s1 [Compound 125, 5-(N-(cyanomethyl)-N-methylsulfamoyl)-2-(2-fluorobenzamido) thiophene-3-carboxamide]
30 | 383 nM | COc1ccc(CS(=O)(=O)c2cc(C(N)=O)c(NC(=O)c3ccccc3F)s2)cc1 [Compound 130, 2-(2-fluorobenzamido)-5-(4-methoxybenzylsulfonyl) thiophene-3-carboxamide]
